Tested on: adolescents with single ventricle physiology after Fontan palliation
Assay: Echocardiographic assessment of ventricular performance (blood pool MPI, tissue Doppler MPI, average isovolumic contraction and relaxation)
Type: in vivo, human
Set-up: Average Isovolumic Contraction, Baseline measurement / Average Isovolumic Contraction, Follow-up measurement: unit not given here
Conditions: for Average Isovolumetric Relaxation, Follow-up measurement / Average Isovolumetric Relaxation, Baseline measurement: in ms (unit assumed)
Excerpt: Ventricular performance and cardiac contractility are important measurements that can reveal impairment of cardiovascular health before overt heart failure is present. Ventricular performance can be assessed using echocardiographic methods and quantified via a myocardial performance index or MPI. MPI is an index that combines systolic and diastolic function. Specifically, MPI is defined as the sum of isovolumic contraction time and isovolumic relaxation time divided by the ejection time.
Various versions of MPI are known in the art, and each version of MPI may be used to assess ventricular performance. For instance, MPI indices may include but are not limited to blood pool MPI, tissue doppler MPI, average isovolumetric contraction, and average isovolumetric relaxation.
The primary outcome of ventricular performance with assessed using echocardiographic methods and measured according to a myocardial performance Index (MPI). The MPI is a ventricular geometry-independent measure of combined systolic and diastolic ventricular performance (Charles S. Kleinman et al, 2008—Health and Fitness). It is obtained by indexing the sum of isovolumetric contraction and relaxation time to ejection time.
Table 18 summarizes results for the key outcome from the Echocardiographic Assessment of Ventricular Performance—Blood Pool MPI. Out of the 30 subjects enrolled in the treatment arms of the trial, 27 subjects had paired measurements. The structure of the table is similar to the one for exercise variables.
Tables 19-21 and FIGS. 9-15 report similar results for three other versions of MPI: Tissue Doppler MPI, and Average Isovolumetric Contraction and Relaxation.

In the case of `CCCOc1ccc(S(=O)(=O)NCCC2CCCN2C)cc1-c1nc2c(CCC)nn(C)c2c(=O)[nH]1` (stereo not shown) [udenafil], the “Average Isovolumetric Relaxation, Difference, FU − BL” value (37.5 mg daily, N 5) is reported as 9.0 ± 11.5, the “Average Isovolumic Contraction, Difference, FU − BL” value (37.5 mg daily, N 5) is reported as −3.5 ± 50.0 and the “Average Isovolumic Contraction, Follow-up measurement” value (37.5 mg daily, N 5) is reported as 86.4 ± 22.7. For the same molecule, the “Blood Pool MPI, Difference, FU − BL” value (37.5 mg daily, N 5) was −0.052 ± 0.166, the “Blood Pool MPI, Follow-up measurement” value (37.5 mg daily, N 5) was 0.504 ± 0.187 and the “Tissue Doppler MPI, Difference, FU − BL” value (37.5 mg daily, N 5) was −0.052 ± 0.398. For the same molecule, the “Tissue Doppler MPI, Follow-up measurement” value (37.5 mg daily, N 5) was 0.637 ± 0.206, the “Average Isovolumetric Relaxation, Follow-up measurement” value (37.5 mg daily, N 5) was 94.0 ± 26.7 and the “Average Isovolumic Contraction, Baseline measurement” value (37.5 mg daily, N 6) was 99.2 ± 50.7. The “Blood Pool MPI, Baseline measurement” value (37.5 mg daily, N 6) was 0.537 ± 0.304, the “Tissue Doppler MPI, Baseline measurement” value (37.5 mg daily, N 6) was 0.701 ± 0.417 and the “Average Isovolumetric Relaxation, Baseline measurement” value (37.5 mg daily, N 6) was 83.8 ± 16.1. The “Average Isovolumetric Relaxation, Difference, FU − BL” value (37.5 mg twice daily, N 6) was 0.8 ± 21.2, the “Average Isovolumic Contraction, Baseline measurement” value (37.5 mg twice daily, N 6) was 109.4 ± 51.1 and the “Average Isovolumic Contraction, Difference, FU − BL” value (37.5 mg twice daily, N 6) was −5.8 ± 25.7. For the same molecule, the “Average Isovolumic Contraction, Follow-up measurement” value (37.5 mg twice daily, N 6) was 103.6 ± 32.4, the “Blood Pool MPI, Baseline measurement” value (37.5 mg twice daily, N 6) was 0.496 ± 0.150 and the “Blood Pool MPI, Difference, FU − BL” value (37.5 mg twice daily, N 6) was −0.003 ± 0.102. The “Blood Pool MPI, Follow-up measurement” value (37.5 mg twice daily, N 6) was 0.494 ± 0.087, the “Tissue Doppler MPI, Baseline measurement” value (37.5 mg twice daily, N 6) was 0.818 ± 0.361 and the “Tissue Doppler MPI, Difference, FU − BL” value (37.5 mg twice daily, N 6) was −0.089 ± 0.142. For the same molecule, the “Tissue Doppler MPI, Follow-up measurement” value (37.5 mg twice daily, N 6) was 0.729 ± 0.230, the “Average Isovolumetric Relaxation, Baseline measurement” value (37.5 mg twice daily, N 6) was 100.8 ± 32.3 and the “Average Isovolumetric Relaxation, Follow-up measurement” value (37.5 mg twice daily, N 6) was 101.6 ± 40.0. The “Average Isovolumetric Relaxation, Difference, FU − BL” value (87.5 mg daily, N 6) was −6.9 ± 10.1, the “Average Isovolumic Contraction, Baseline measurement” value (87.5 mg daily, N 6) was 122.4 ± 36.7 and the “Average Isovolumic Contraction, Difference, FU − BL” value (87.5 mg daily, N 6) was −7.4 ± 26.5. For the same molecule, the “Average Isovolumic Contraction, Follow-up measurement” value (87.5 mg daily, N 6) was 115.0 ± 32.9, the “Blood Pool MPI, Baseline measurement” value (87.5 mg daily, N 6) was 0.588 ± 0.158 and the “Blood Pool MPI, Difference, FU − BL” value (87.5 mg daily, N 6) was −0.076 ± 0.144. The “Blood Pool MPI, Follow-up measurement” value (87.5 mg daily, N 6) was 0.512 ± 0.163, the “Tissue Doppler MPI, Baseline measurement” value (87.5 mg daily, N 6) was 0.804 ± 0.118 and the “Tissue Doppler MPI, Difference, FU − BL” value (87.5 mg daily, N 6) was −0.089 ± 0.131. For the same molecule, the “Tissue Doppler MPI, Follow-up measurement” value (87.5 mg daily, N 6) was 0.716 ± 0.142, the “Average Isovolumetric Relaxation, Baseline measurement” value (87.5 mg daily, N 6) was 93.4 ± 11.0 and the “Average Isovolumetric Relaxation, Follow-up measurement” value (87.5 mg daily, N 6) was 86.4 ± 15.3. The “Average Isovolumetric Relaxation, Difference, FU − BL” value (87.5 mg twice daily, N 4) was 5.2 ± 12.6, the “Average Isovolumic Contraction, Baseline measurement” value (87.5 mg twice daily, N 4) was 84.1 ± 20.3 and the “Average Isovolumic Contraction, Difference, FU − BL” value (87.5 mg twice daily, N 4) was 4.1 ± 12.1. For the same molecule, the “Tissue Doppler MPI, Baseline measurement” value (87.5 mg twice daily, N 4) was 0.540 ± 0.019, the “Tissue Doppler MPI, Difference, FU − BL” value (87.5 mg twice daily, N 4) was 0.060 ± 0.068 and the “Average Isovolumetric Relaxation, Baseline measurement” value (87.5 mg twice daily, N 4) was 72.3 ± 10.5. For the same molecule, the “Blood Pool MPI, Baseline measurement” value (87.5 mg twice daily, N 5) was 0.548 ± 0.136, the “Blood Pool MPI, Difference, FU − BL” value (87.5 mg twice daily, N 5) was −0.118 ± 0.090 and the “Average Isovolumic Contraction, Follow-up measurement” value (87.5 mg twice daily, N 6) was 83.8 ± 26.4. For the same molecule, the “Blood Pool MPI, Follow-up measurement” value (87.5 mg twice daily, N 6) was 0.410 ± 0.078, the “Tissue Doppler MPI, Follow-up measurement” value (87.5 mg twice daily, N 6) was 0.638 ± 0.168 and the “Average Isovolumetric Relaxation, Follow-up measurement” value (87.5 mg twice daily, N 6) was 82.4 ± 11.4. The “Average Isovolumetric Relaxation, Difference, FU − BL” value (125 mg daily, N 5) was −5.4 ± 11.1, the “Average Isovolumic Contraction, Difference, FU − BL” value (125 mg daily, N 5) was −8.0 ± 24.6 and the “Average Isovolumic Contraction, Follow-up measurement” value (125 mg daily, N 5) was 150.5 ± 60.5. The “Blood Pool MPI, Difference, FU − BL” value (125 mg daily, N 5) was −0.054 ± 0.180, the “Blood Pool MPI, Follow-up measurement” value (125 mg daily, N 5) was 0.696 ± 0.202 and the “Tissue Doppler MPI, Difference, FU − BL” value (125 mg daily, N 5) was −0.074 ± 0.141. For the same molecule, the “Tissue Doppler MPI, Follow-up measurement” value (125 mg daily, N 5) was 0.822 ± 0.271, the “Average Isovolumetric Relaxation, Follow-up measurement” value (125 mg daily, N 5) was 96.8 ± 17.4 and the “Average Isovolumic Contraction, Baseline measurement” value (125 mg daily, N 6) was 152.4 ± 64.4. For the same molecule, the “Blood Pool MPI, Baseline measurement” value (125 mg daily, N 6) was 0.728 ± 0.155, the “Tissue Doppler MPI, Baseline measurement” value (125 mg daily, N 6) was 0.861 ± 0.323 and the “Average Isovolumetric Relaxation, Baseline measurement” value (125 mg daily, N 6) was 99.5 ± 25.0. For the same molecule, the “Average Isovolumetric Relaxation, Difference, FU − BL” value (All subjects, N 26) was 0.1 ± 14.4, the “Average Isovolumic Contraction, Difference, FU − BL” value (All subjects, N 26) was −4.6 ± 28.3 and the “Tissue Doppler MPI, Difference, FU − BL” value (All subjects, N 26) was −0.056 ± 0.198. For the same molecule, the “Blood Pool MPI, Difference, FU − BL” value (All subjects, N 27) was −0.059 ± 0.134, the “Average Isovolumic Contraction, Baseline measurement” value (All subjects, N 28) was 115.6 ± 50.5 and the “Average Isovolumic Contraction, Follow-up measurement” value (All subjects, N 28) was 107.1 ± 41.3. The “Blood Pool MPI, Follow-up measurement” value (All subjects, N 28) was 0.517 ± 0.165, the “Tissue Doppler MPI, Baseline measurement” value (All subjects, N 28) was 0.760 ± 0.299 and the “Tissue Doppler MPI, Follow-up measurement” value (All subjects, N 28) was 0.707 ± 0.201. For the same molecule, the “Average Isovolumetric Relaxation, Baseline measurement” value (All subjects, N 28) was 91.2 ± 22.2, the “Average Isovolumetric Relaxation, Follow-up measurement” value (All subjects, N 28) was 92.0 ± 23.8 and the “Blood Pool MPI, Baseline measurement” value (All subjects, N 29) was 0.581 ± 0.197. For the same molecule, the “Improvement in Blood Pool MPI” value (some patients, baseline to day 5) was ≤ 21.5%.

— US10653698B2, “Methods of improving myocardial performance in Fontan patients using udenafil compositions” (priority 2014, dated 2020)
